Earlier results on one compound are cited in patent EP4459286A1, “KIT FOR QUANTITATIVELY DETERMINING TACROLIMUS IN WHOLE BLOOD BY LOW-RESISTANCE LATEX-ENHANCED IMMUNE COMPETITION METHOD, AND USE THEREOF” (SHANGHAI YUNZE BIOTECHNOLOGY CO., LTD, priority 2021, dated 2023).

SMILES strings stand for the structures. Read-outs that look alike come from different tables or passages of the source.

For data set [1] the following is noted: compared with cyclosporine.
The conditions of data set [2]: rescue therapy, cyclosporine ineffective.

On to `C=CC[C@@H]1/C=C(\C)C[C@H](C)C[C@H](OC)[C@H]2O[C@@](O)(C(=O)C(=O)N3CCCC[C@H]3C(=O)O[C@H](/C(C)=C/[C@@H]3CC[C@@H](O)[C@H](OC)C3)[C@H](C)[C@@H](O)CC1=O)[C@H](C)C[C@@H]2OC` [tacrolimus, Tacrolimus], for which the “effect of preventing rejection in various organ transplants” value in data set [1] is reported as “superior to that of cyclosporine”. Further, the success rate was 74% in data set [2] (kidney transplantation patients) and 87% in data set [2] (liver transplantation patients).
